We go through 31 molecules from patent US20090048269A1 (AstraZeneca AB, priority 2007, published 2009).

Molecules are shown by their SMILES.

This test deals with T1, human ALK5 (Homo sapiens, UniProt P36897).
T1 sequence (P36897 162-503): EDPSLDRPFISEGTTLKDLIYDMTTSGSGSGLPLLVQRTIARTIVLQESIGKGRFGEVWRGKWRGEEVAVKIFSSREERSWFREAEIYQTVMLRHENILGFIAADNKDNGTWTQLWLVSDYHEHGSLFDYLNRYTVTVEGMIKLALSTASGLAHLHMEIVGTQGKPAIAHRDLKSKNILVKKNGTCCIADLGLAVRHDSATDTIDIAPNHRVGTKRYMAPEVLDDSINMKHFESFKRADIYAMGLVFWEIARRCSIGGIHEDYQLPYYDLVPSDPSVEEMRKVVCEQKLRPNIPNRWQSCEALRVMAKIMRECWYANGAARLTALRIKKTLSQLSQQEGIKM
The test is described as follows: ALK5 Enzyme Assay 2 (fluorescence polarisation probe displacement). On the set-up: 6His tagged human ALK5 (residues162-503) was grown and purified from insect cells; 6His; made in house; host or cells: insect cells. Particulars: read-out: EAA2: activity (μM) using Enzyme Assay 2. In kind it is binding. The protocol: The ability of a compound to bind and inhibit ALK5 can be measured by its capacity to displace a probe molecule from recombinant ALK5 in an in vitro assay. Provided the probe molecule is derivatised with a fluorescent probe or is fluorescent itself, the binding affinity can be measured using Fluorescence Polarisation (FP). […] Assay measurements were performed in 50 mM HEPES pH7.4, 10 mM MgCl2, 1 mM DTT, 0.01% CHAPS in a final assay volume of 12 μl. Briefly 6 μl of ALK5 protein, final concentration of 3 μg/mL, was added to each well of a 384 well assay plate containing 12 nL of each concentration of test compound dissolved in DMSO. 6 μL of a solution containing an ALK5 FP probe ((2Z)-3-(6-{4-[2-({4-[(6-chloro[1,3]dioxolo[4,5-b]pyridin-7-yl)amino]-5-(1-methylethoxy)quinazolin-7-yl}oxy)ethyl]piperazin-1-yl}-6-oxohexyl)-2-[(2E,4E)-5-(3-ethyl-1,1-dimethyl-6,8-disulfo-1H-benzo[e]indolium-2-yl)penta-2,4-dien-1-ylidene]-1,1-dimethyl-6-sulfo-2,3-dihydro-1H-benzo[e]indole-8-sulfonate), final concentration 50 nM, and ATP, final concentration 1 μM.

With `Cc1ccc(Oc2ccnc(Nc3cccc(NS(C)(=O)=O)c3)c2)c(C)n1` [Example 128, N-(3-{[4-(2,6-Dimethylpyridin-3-yl)oxypyridin-2-yl]amino}-phenyl)methanesulfonamide], the IC50 was 0.0321 µM.
Take `CNS(=O)(=O)c1ccc(Nc2cc(Oc3ccc(C)nc3C)ccn2)cc1` [Example 108, 4-{[4-(2,6-Dimethylpyridin-3-yl)oxypyridin-2-yl]amino}-N-methylbenzenesulfonamide]: the IC50 was 0.171 µM.
On to `Cc1ccc(Oc2ccnc(Nc3cccc(CN4CCN(C(=O)C5CC5)CC4)c3)c2)c(C)n1` [Example 183, N-(3-{[4-(cyclopropylcarbonyl)piperazin-1-yl]methyl}phenyl)-4-[(2,6-dimethylpyridin-3-yl)oxy]pyridin-2-amine], for which the IC50 came to 0.0127 µM.
As to `Cc1ccc(Oc2ccnc(Nc3cccc(CN4CCN(CC(=O)NC5CC5)CC4)c3)c2)c(C)n1` [Example 188, N-cyclopropyl-2-{4-[(3-{[4-(2,6-dimethylpyridin-3-yl)oxypyridin-2-yl]amino}phenyl)methyl]piperazin-1-yl}acetamide], the IC50 was 0.00691 µM.
The same measure for `Cc1ccc(Oc2ccnc(Nc3ccccn3)c2)c(C)n1` [Example 153, 4-(2,6-Dimethylpyridin-3-yl)oxy-N-pyridin-2-ylpyridin-2-amine]: 0.0238 µM; for `Cc1ccc(Oc2ccnc(Nc3ccc(C(=O)NCCN4CCCCC4)cc3)c2)c(C)n1` [Example 217, 4-{[4-(2,6-Dimethylpyridin-3-yl)oxypyridin-2-yl]amino}-N-(2-piperidin-1-ylethyl)benzamide]: 0.0121 µM; for `Cc1ccc(Oc2ccnc(Nc3cccc(CN4CCN(C(=O)OC(C)(C)C)CC4)c3)c2)c(C)n1` [Example 207, tert-Butyl 4-[(3-{[4-(2,6-dimethylpyridin-3-yl)oxypyridin-2-yl]-amino}phenyl)methyl]piperazine-1-carboxylate]: 0.0384 µM.
With `Cc1cc(Oc2ccnc(Nc3cccc(NS(C)(=O)=O)c3)c2)c(-c2ccccn2)nc1C` [Example 76, N-(3-{[4-(5,6-Dimethyl-2-pyridin-2-ylpyridin-3-yl)oxypyridin-2-yl]-amino}phenyl)methanesulfonamide], the IC50 is 0.0148 µM.
With `Cc1ccc(Oc2ccnc(Nc3ccc(C(=O)N(C)C)cc3)c2)c(C)n1` [Example 121, 4-{[4-(2,6-Dimethylpyridin-3-yl)oxypyridin-2-yl]amino}-N,N-dimethylbenzamide] the figure was 0.088 µM.
In the case of `Cc1cc(Oc2ccnc(Nc3ccc(C(=O)NCCN)cc3)c2)c(-c2ccccn2)nc1C` [Example 200, N-(2-Aminoethyl)-4-{[4-(5,6-dimethyl-2-pyridin-2-ylpyridin-3-yl)oxypyridin-2-yl]amino}benzamide], the IC50 was determined as 0.00485 µM.
The same measure for `Cc1ccc(Oc2ccnc(Nc3cccc(CN4CCN(C(C)C(N)=O)CC4)c3)c2)c(C)n1` (stereo not shown) [Example 190, 2-14-[3-({4-[(2,6-dimethylpyridin-3-yl)oxylpyridin-2-yl}amino)-benzyl]piperazin-1-yl}propanamide]: 0.0322 µM; for `COc1ccc(-c2nc(C)ccc2Oc2ccnc(Nc3cc(OC)c(OC)c(OC)c3)c2)cc1` [Example 168, 4-[2-(4-Methoxyphenyl)-6-methylpyridin-3-yl-oxy]-N-(3,4,5-trimethoxyphenyl)pyridin-2-amine]: 0.0228 µM.
As to `Cc1ccc(Oc2ccnc(Nc3cccc(C(=O)NCc4cnccn4)c3)c2)c(C)n1` [Example 64, 3-{[4-(2,6-Dimethylpyridin-3-yl)oxypyridin-2-yl]amino}-N-(pyrazin-2-ylmethyl)benzamide], the IC50 is 0.0415 µM.
The same measure for `Cc1ccc(Oc2ccnc(Nc3cccc(C(=O)O)c3)c2)c(C)n1` [Example 210, Sodium 3-{[4-(2,6-dimethylpyridin-3-yl)oxypyridin-2-yl]amino}benzoate]: 0.0392 µM; for `Cc1ccc(Oc2ccnc(Nc3ccc(S(N)(=O)=O)cc3)c2)c(-c2ccco2)n1` [Example 160, 4-({4-[2-(Furan-2-yl)-6-methylpyridin-3-yl]oxypyridin-2-yl}-amino)benzenesulfonamide]: 0.0128 µM.
With `Cc1ccc(Oc2ccnc(Nc3ccc(S(=O)(=O)NCCN4CCN(C)CC4)cc3)c2)c(C)n1` [Example 133, 4-{[4-(2,6-Dimethylpyridin-3-yl)oxypyridin-2-yl]amino}-N-[2-(4-methylpiperazin-1-yl)ethyl]benzenesulfonamide], the IC50 came to 0.0932 µM.
Consider `Cc1ccc(Oc2ccnc(Nc3ccc(C(=O)NCCN4CC5CCC(C4)O5)cc3)c2)c(C)n1` [Example 218, 4-{[4-(2,6-Dimethylpyridin-3-yl)oxypyridin-2-yl]amino}-N-[2-(8-oxa-3-azabicyclo[3.2.1]octan-3-yl)ethyl]benzamide], for which the IC50 was 0.0495 µM.
With `Cc1ccc(Oc2ccnc(Nc3cccc(CN4CCN(C)CC4)c3)c2)c(C)n1` [Example 193, 4-(2,6-Dimethylpyridin-3-yl)oxy-N-{3-[(4-methylpiperazin-1-yl)-methyl]phenyl}pyridin-2-amine] the figure was 0.00427 µM.
With `Cc1cc(Oc2ccnc(Nc3cccc(C(=O)N4CCC4)c3)c2)c(-c2ccccn2)nc1C` [Example 98, Azetidin-1-yl-(3-{[4-(5,6-dimethyl-2-pyridin-2-ylpyridin-3-yl)-oxypyridin-2-yl]amino}phenyl)methanone] the figure was 0.0513 µM.
For the molecule `Cc1cc(Oc2ccnc(Nc3ccc(CC#N)cc3)c2)c(-c2ccccn2)nc1C` [Example 74, 2-(4-{[4-(5,6-Dimethyl-2-pyridin-2-ylpyridin-3-yl)oxypyridin-2-yl]-amino}phenyl)acetonitrile], the IC50 was 0.00488 µM.
As for `Cc1ccc(Oc2ccnc(Nc3ccc(S(=O)(=O)N(C)C)cc3)c2)c(C)n1` [Example 117, 4-{[4-(2,6-Dimethylpyridin-3-yl)oxypyridin-2-yl]amino}-N,N-dimethylbenzenesulfonamide], the IC50 was found to be 0.37 µM.
With `Cc1cc(Oc2ccnc(Nc3cc(CO)cc(S(N)(=O)=O)c3)c2)c(-c2ccccn2)nc1C` [Example 87, 3-{[4-(5,6-Dimethyl-2-pyridin-2-ylpyridin-3-yl)oxypyridin-2-yl]-amino}-5-(hydroxymethyl)benzenesulfonamide] the figure was 0.0731 µM; with `Cc1ccc(Oc2ccnc(Nc3cccc(S(N)(=O)=O)c3)c2)c(C)n1` [Example 105, 3-{[4-(2,6-Dimethylpyridin-3-yl)oxypyridin-2-yl]amino}benzene-sulfonamide], 0.00764 µM.
The same measure for `Cc1cc(Oc2ccnc(Nc3cccc(OCCN4CCOCC4)c3)c2)c(-c2ccccn2)nc1C` [Example 79, 4-(5,6-Dimethyl-2-pyridin-2-ylpyridin-3-yl)oxy-N-[3-(2-morpholin-4-ylethoxy)phenyl]pyridin-2-amine]: 0.0396 µM.
`CCCCCNS(=O)(=O)c1ccc(Nc2cc(Oc3ccc(C)nc3C)ccn2)cc1` [Example 114, 4-{[4-(2,6-Dimethylpyridin-3-yl)oxypyridin-2-yl]amino}-N-pentylbenzenesulfonamide]: the IC50 worked out at 3.01 µM.
Consider `CC(=O)N(C)c1ccc(Nc2cc(Oc3ccc(C)nc3C)ccn2)cc1` [Example 122, N-(4-{[4-(2,6-Dimethylpyridin-3-yl)oxypyridin-2-yl]amino}-phenyl)-N-methylacetamide], for which the IC50 worked out at 0.215 µM.
Regarding `Cc1ccc(Oc2ccnc(Nc3ccc(S(=O)(=O)NCCn4cccn4)cc3)c2)c(C)n1` [Example 136, 4-{[4-(2,6-Dimethylpyridin-3-yl)oxypyridin-2-yl]amino}-N-(2-pyrazol-1-ylethyl)benzenesulfonamide], the IC50 stood at 0.101 µM.
As to `Cc1ccc(Oc2ccnc(Nc3ccc(CO)cc3)c2)c(-c2ccccn2)n1` [Example 147, (4-{[4-(6-Methyl-2-pyridin-2-ylpyridin-3-yl)oxypyridin-2-yl]-amino}phenyl)methanol], the IC50 turned out to be 0.00921 µM.
For the molecule `Cc1ccc(Oc2ccnc(Nc3cccc(S(=O)(=O)N4CCOCC4)c3)c2)c(C)n1` [Example 119, 4-(2,6-Dimethylpyridin-3-yl)oxy-N-(3-morpholin-4-ylsulfonyl-phenyl)pyridin-2-amine], the IC50 worked out at 0.0319 µM.
On to `Cc1ccc(Oc2ccnc(Nc3cccc(C(=O)N4CCCC(C(N)=O)C4)c3)c2)c(C)n1` (stereo not shown) [Example 68, 1-(3-{[4-(2,6-Dimethylpyridin-3-yl)oxypyridin-2-yl]amino}-benzoyl)piperidine-3-carboxamide], for which the IC50 was found to be 0.00895 µM.
Take `Cc1ccc(Oc2ccnc(Nc3cccc(C(=O)N4CCC(S(C)(=O)=O)C4)c3)c2)c(C)n1` (stereo not shown) [Example 66, (3-{[4-(2,6-Dimethylpyridin-3-yl)oxypyridin-2-yl]amino}phenyl)-(3-methylsulfonylpyrrolidin-1-yl)methanone]: the IC50 is 0.0185 µM.
